Results as given in US12144881B2, “Cosmetic composition containing α-mangostin, method for preparation, and uses thereof” (priority 2018, dated 2024).

What was measured:
[1] = Photolysis of butyl methoxydibenzoylmethane under sunlight and its inhibition by α-mangostin (absorbance at 357 nm); format: physicochemical; settings: for M value: M=Bi/Ai, butyl methoxydibenzoylmethane remaining with α-mangostin vs control
Description: Instrument and equipment: Model 751-GW spectrophotometer; and FA1004 electronic balance. Reagents: butyl methoxydibenzoylmethane, from Shanghai SIMP Co., Ltd.; and an α-mangostin sample. • (6) Formulation of standard stock solutions of butyl methoxydibenzoylmethane and the sample: 20.0 mg of butyl methoxydibenzoylmethane and α-mangostin were weighed separately, and diluted with a specific mixed solvent (an acetone-water mixed solvent with a ratio by volume of acetone to water of 5:1, hereinafter referred to as mixed solvent) to a volume of 10 ml. • (7) Formulation of reference solutions of butyl methoxydibenzoylmethane and the sample: The mixed solvent was used as the reference solution of butyl methoxydibenzoylmethane. 0.1 ml of the standard stock solution of the α-mangostin sample was drawn, and diluted with the mixed solvent to a volume of 10 ml, as the reference solution of the sample. • (8) Formulation of standard working solutions (20 μg/ml) of butyl methoxydibenzoylmethane and the sample: 0.1 ml of the standard stock solution of butyl methoxydibenzoylmethane was drawn and diluted with the mixed solvent to a volume of 10 ml. 0.1 ml aliquots of the standard stock solution of the α-mangostin sample were drawn separately, and added separately to 0.1 ml aliquots of the standard stock solution of butyl methoxydibenzoylmethane, and then diluted with the mixed solvent to a volume of 10 ml. • (9) Reference solutions and standard working solutions of different concentrations of rutin were formulated according to Steps (2) and (3). • (10) Determination of the photolysis rate and photolysis inhibition rate of butyl methoxydibenzoylmethane: The absorbance of the standard working solution of butyl methoxydibenzoylmethane and the absorbance of butyl methoxydibenzoylmethane in the α-mangostin sample were measured at 357 nm. Then they were subjected to the sunlight exposure, and the absorbance thereof was measured every day. The photolysis rate, the photolysis inhibition rate and the M value of butyl methoxydibenzoylmethane were calculated according to the following formulas: % Photolysis rate=(A0−Ai)/A0×100% % Photolysis inhibition rate=[1−(B0−Bi)/(A0−Ai)]×100 M=Bi/Ai In the formulas, A0 is the absorbance of the standard working solution of butyl methoxydibenzoylmethane; Ai is the absorbance of the standard working solution of butyl methoxydibenzoylmethane after i days of light exposure; B0 is the absorbance of butyl methoxydibenzoylmethane in the standard working solution of the α-mangostin sample; Bi is the absorbance of butyl methoxydibenzoylmethane in the standard working solution of the α-mangostin sample after i days of light exposure; and M is the ratio of the amount of butyl methoxydibenzoylmethane remaining in the α-mangostin sample to the amount of butyl methoxydibenzoylmethane remaining in the control sample without the sample added. For the above α-mangostin sample and butyl methoxydibenzoylmethane, each was determined for the photolysis inhibition rate or the photolysis rate at the same exposure time, to obtain the curve of light exposure time vs. photolysis inhibition rate of the α-mangostin sample (FIG. 3) and the curve of light exposure time vs. photolysis rate of butyl methoxydibenzoylmethane (FIG. 2).

[2] = Oxygen Radical Absorbance Capacity (ORAC) assay against hydroxyl radicals; settings: trolox equivalent
Description: (§1) Test Method: Oxygen Radical Absorbance Capacity (ORAC) Assay Specific method: An extraction solution containing a solubilizing compound was prepared, the sample was added to the extraction solution to extract the antioxidants present in the sample, and a fluorescent probe was added to the extract, a free radical generator was added to the extract, to detect the decay of the fluorescence intensity of the probe in the sample over time, and calculate the oxidation resistance of the sample based on the decay of the fluorescence intensity of the probe in the sample. The results of ORAC are expressed as micromole trolox equivalent (μmole TE)/gram. Trolox is a vitamin E analog, which is an antioxidant standard substance.

[3] = ORAC 5.0 (sum of five ORAC results); settings: trolox equivalent
Description: Test Method: Oxygen Radical Absorbance Capacity (ORAC) Assay
as §1, with “Specific” for “Test Method: Oxygen Radical Absorbance Capacity (ORAC) Assay Specific”, “sample.” for “sample. The results of ORAC are expressed as micromole trolox equivalent (μmole TE)/gram. Trolox is a vitamin E analog, which is an antioxidant standard substance.”
Note: There are 5 main reactive oxygen species (ROS) in the human body: peroxy radicals, hydroxyl radicals, peroxynitrite, superoxide anions and singlet oxygen.
The results of ORAC are expressed as micromole trolox equivalent (μmole TE)/gram. Trolox is a vitamin E analog, which is an antioxidant standard substance.

[4] = Oxygen Radical Absorbance Capacity (ORAC) assay against peroxynitrite; settings: trolox equivalent
Description: as §1

[5] = UV absorption spectra in the UV wavelength region; format: physicochemical; settings: FIG. 1, UVB 290-320 nm and UVA 320-400 nm
From the text: The present inventors tested the UV absorbance of α-mangostin, butyl methoxydibenzoylmethane and octyl salicylate in the UV wavelength region separately. […] Therefore, the α-mangostin has obvious advantages over the sunscreen agent octyl salicylate, and has a part of the absorption band which can be complementary to that of octyl salicylate, enhancing the UVB protection effect and increasing the SPF value.

[6] = Oxygen Radical Absorbance Capacity (ORAC) assay against peroxyl radicals; settings: trolox equivalent
Description: as §1

[7] = Oxygen Radical Absorbance Capacity (ORAC) assay against oxide anion; settings: trolox equivalent
Description: as §1

[8] = Oxygen Radical Absorbance Capacity (ORAC) assay against single oxygen; settings: trolox equivalent
Description: as §1

Solubility in water = format: physicochemical; settings: extracted α-mangostin

For COc1c(O)cc2oc3cc(O)c(CC=C(C)C)c(O)c3c(=O)c2c1CC=C(C)C [α-mangostin], the M value ([1]; Day 1) was 5.77, the M value ([1]; Day 2) was 12.31 and the “inhibitory effect on the photolysis of butyl methoxydibenzoylmethane (in words)” value ([1]; sunlight) was “very good inhibitory effect”. For the same molecule, the “Inhibition rate of α-mangostin (photolysis inhibition rate)” value (“Inhibition rate of α-mangostin” below) ([1]; sunlight, light exposure time 1 d, 20 μg/ml each) was 84.3%, the “Inhibition rate of α-mangostin” value ([1]; sunlight, light exposure time 2 d) was 82.9% and the “Inhibition rate of α-mangostin” value ([1]; sunlight, light exposure time 3 d) was 82.1%. For the same molecule, the “Inhibition rate of α-mangostin” value ([1]; sunlight, light exposure time 4 d) was 80.5%, the “Inhibition rate of α-mangostin” value ([1]; sunlight, light exposure time 5 d) was 76.4% and the “ORAC against hydroxyl radicals” value [2] was 9,055 μmole TE/gram. For the same molecule, the “ORAC 5.0 (sum of above)” value [3] was 31,468 μmole TE/gram, the ORAC against peroxynitrite [4] was 404 μmole TE/gram and the “UV absorption (in words)” value [5] was “relatively strong absorption from the UVB range of 290-320 nm to the UVA range of 320-400 nm”. The “ORAC against peroxyl radicals” value [6] was 8,704 μmole TE/gram, the “ORAC against oxide anion” value [7] was 13,043 μmole TE/gram and the “ORAC against single oxygen” value [8] was 262 μmole TE/gram. The “solubility in water (in words)” value (Solubility in water) was “poor solubility in water”.
